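Step 1: Grow cells in 96-well plates. Step 2: Expose to compound for 48 hours at 5 concentrations. Step 3: Interpolate endpoints linearly; if unreached, use highest concentration. TGI is the concentration that stops growth completely.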
Tests used:
Test in all cases: NCI tumour cell line growth inhibition, 48 h
NCI-H23 lung = system: NCI-H23 lung
NCI-H522 lung = system: NCI-H522 lung
SW-620 colon = system: SW-620 colon
U251 CNS = system: U251 CNS
OVCAR-4 ovarian = system: OVCAR-4 ovarian
MDA-MB-435 = system: MDA-MB-435
UO-31 renal = system: UO-31 renal
SNB-19 CNS = system: SNB-19 CNS
HOP-92 NSCLC = system: HOP-92 NSCLC
A549 NSCLC = system: A549 NSCLC
PC-3 prostate = system: PC-3 prostate
K-562 leukemia = system: K-562 leukemia
MDA-MB-231 breast = system: MDA-MB-231 breast
SF-295 CNS = system: SF-295 CNS
HCC-2998 colon = system: HCC-2998 colon
NCI-H460 lung = system: NCI-H460 lung
HOP-62 NSCLC = system: HOP-62 NSCLC
SK-OV-3 ovarian = system: SK-OV-3 ovarian
DU-145 prostate = system: DU-145 prostate
SK-MEL-2 melanoma = system: SK-MEL-2 melanoma
COLO 205 colon = system: COLO 205 colon
CCRF-CEM leukemia = system: CCRF-CEM leukemia
HL-60(TB) leukemia = system: HL-60(TB) leukemia
MOLT-4 leukemia = system: MOLT-4 leukemia
A498 renal = system: A498 renal
SF-268 CNS = system: SF-268 CNS
HS 578T breast = system: HS 578T breast
OVCAR-5 ovarian = system: OVCAR-5 ovarian
BT-549 breast = system: BT-549 breast
MCF7 breast = system: MCF7 breast
MALME-3M melanoma = system: MALME-3M melanoma
SF-539 CNS = system: SF-539 CNS
OVCAR-3 ovarian = system: OVCAR-3 ovarian
SR leukemia = system: SR leukemia
CAKI-1 renal = system: CAKI-1 renal
NCI-H226 lung = system: NCI-H226 lung
M14 melanoma = system: M14 melanoma
MDA-N = system: MDA-N
HT29 colon = system: HT29 colon
HCT-15 colon = system: HCT-15 colon
UACC-62 melanoma = system: UACC-62 melanoma
LOX IMVI melanoma = system: LOX IMVI melanoma
T-47D breast = system: T-47D breast
TK-10 renal = system: TK-10 renal
SNB-75 CNS = system: SNB-75 CNS
SK-MEL-5 melanoma = system: SK-MEL-5 melanoma
UACC-257 melanoma = system: UACC-257 melanoma
786-0 renal = system: 786-0 renal
ACHN renal = system: ACHN renal
KM12 colon = system: KM12 colon
HCT-116 colon = system: HCT-116 colon
RXF 393 renal = system: RXF 393 renal
NCI/ADR-RES ovarian = system: NCI/ADR-RES ovarian
EKVX NSCLC = system: EKVX NSCLC
SN12C renal = system: SN12C renal
OVCAR-8 ovarian = system: OVCAR-8 ovarian
SK-MEL-28 melanoma = system: SK-MEL-28 melanoma
IGROV1 ovarian = system: IGROV1 ovarian
RPMI-8226 leukemia = system: RPMI-8226 leukemia

Measured: TGI

COc1ccc(-c2[nH]c3c4c(nc5c(c24)C(=O)CC(C)(C)C5)CC(C)(C)C3)cc1
92.6 µM: PC-3 prostate
94 µM: MOLT-4 leukemia
92.1 µM: SR leukemia
not listed: IGROV1 ovarian | RPMI-8226 leukemia
> 100 µM: all other assays above

Nn1c(-c2ccccc2)n[nH]c1=O
not listed: K-562 leukemia | RXF 393 renal
> 100 µM: all other assays above

— PubChem BioAssay (NCI)
